{"source": "patent US5990147A", "about": "“H3 receptor ligands of the phenyl-alkyl-imidazoles type” (Schering Corporation, priority 1998, dated 1999)", "data": [{"target": "T1, H3 receptors (Cavia porcellus, UniProt Q9JI35)", "T1 construct": "The source of the H3 receptors in this experiment was guinea pig brain; from tissue; host or cells: guinea pig brain membranes", "T1 sequence (Q9JI35 whole entry)": "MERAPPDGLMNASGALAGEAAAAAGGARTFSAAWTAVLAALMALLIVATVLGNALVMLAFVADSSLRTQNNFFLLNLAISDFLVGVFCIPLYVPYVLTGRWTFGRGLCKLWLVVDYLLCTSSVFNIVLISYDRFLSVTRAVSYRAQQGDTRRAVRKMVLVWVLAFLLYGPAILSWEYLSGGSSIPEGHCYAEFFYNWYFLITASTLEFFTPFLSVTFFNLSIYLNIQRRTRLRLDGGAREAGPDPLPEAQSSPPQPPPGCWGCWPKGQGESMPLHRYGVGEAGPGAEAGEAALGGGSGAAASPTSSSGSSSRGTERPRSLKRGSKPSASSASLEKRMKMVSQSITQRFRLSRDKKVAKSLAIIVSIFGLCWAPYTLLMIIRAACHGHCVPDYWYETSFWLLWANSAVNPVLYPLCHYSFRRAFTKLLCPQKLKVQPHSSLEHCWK", "test": "H3-Receptor Binding Assay (guinea pig brain membranes, [3H]R-a-methylhistamine or [3H]Na-methylhistamine)", "conditions": "not given", "protocol": "(§1) The source of the H3 receptors in this experiment was guinea pig brain. The animals weighed 400-600 g. The brain tissue was homogenized using a Polytron in a solution of 50 mM Tris, pH 7.5. The final concentration of tissue in the homogenization buffer was 10% w/v. The homogenates were centrifuged at 1,000×g for 10 min. in order to remove clumps of tissue and debris. The resulting supernatants were then centrifuged at 50,000×g for 20 min. in order to sediment the membranes, which were next washed three times in homogenization buffer (50,000×g for 20 min. each). The membranes were frozen and stored at -70° C. until needed.\n(§2) All compounds to be tested were dissolved in DMSO and then diluted into the binding buffer (50 mM Tris, pH 7.5) such that the final concentration was 2 μg/ml with 0.1% DMSO. Membranes were then added (400 μg of protein) to the reaction tubes. The reaction was started by the addition of 3 nM [^3 H]R-a-methylhistamine (8.8 Ci/mmol) or 3 nM [^3 H]N^a -methylhistamine (80 Ci/mmol) and continued under incubation at 30° C. for 30 min. Bound ligand was separated from unbound ligand by filtration, and the amount of radioactive ligand bound to the membranes was quantitated by liquid scintillation spectrometry. All incubations were performed in duplicate and the standard error was always less than 10%. […] The results are given in the table below for the HCl salt of the indicated compound.", "units": {"Ki": "nM"}, "values": [{"smiles": "O=C(NCc1ccc(Cc2c[nH]cn2)cc1)Nc1cc(Cl)cc(Cl)c1", "note": "[Compound 8]", "Ki": 12}, {"smiles": "O=C(Nc1cccc(C(F)(F)F)c1)OCc1ccc(Cc2c[nH]cn2)cc1", "note": "[Compound 12]", "Ki": 21}, {"smiles": "Cc1cc(C)cc(NC(=O)OCc2ccc(Cc3c[nH]cn3)cc2)c1", "note": "[Compound 14]", "Ki": 17}, {"smiles": "N#Cc1cccc(NC(=O)OCc2ccc(Cc3c[nH]cn3)cc2)c1", "note": "[Compound 15]", "Ki": 7}, {"smiles": "COc1cccc(NC(=O)OCc2ccc(Cc3c[nH]cn3)cc2)c1", "note": "[Compound 17]", "Ki": 13}, {"smiles": "O=C(Nc1cccc(F)c1)OCc1ccc(Cc2c[nH]cn2)cc1", "note": "[Compound 19]", "Ki": 5}, {"smiles": "O=C(CCc1ccc(Cc2c[nH]cn2)cc1)Nc1ccccc1", "note": "[Compound 21]", "Ki": 2}, {"smiles": "O=C(CCc1ccc(Cc2c[nH]cn2)cc1)Nc1cccc(Cl)c1", "note": "[Compound 22]", "Ki": 1}, {"smiles": "O=C(CCc1ccc(Cc2c[nH]cn2)cc1)NCCc1ccc(Cl)cc1", "note": "[Compound 24]", "Ki": 5}]}, {"target": "T1, H3 receptors", "test": "H3-Receptor Binding Assay (guinea pig brain membranes, [3H]R-a-methylhistamine or [3H]Na-methylhistamine)", "conditions": "HCl salt of the indicated compound; guinea pig brain membranes; 3 nM [3H]R-a-methylhistamine or 3 nM [3H]Na-methylhistamine, pH 7.5, 30° C., 30 min; read-out: Ki", "protocol": "as §1, §2", "units": {"Ki": "nM"}, "values": [{"smiles": "COc1cccc(NC(=O)NCc2ccc(Cc3c[nH]cn3)cc2)c1", "note": "[Compound 1]", "Ki": 18}, {"smiles": "O=C(NCc1ccc(Cc2c[nH]cn2)cc1)Nc1cc(C(F)(F)F)cc(C(F)(F)F)c1", "note": "[Compound 2]", "Ki": 22}, {"smiles": "Cc1cc(C)cc(NC(=O)NCc2ccc(Cc3c[nH]cn3)cc2)c1", "note": "[Compound 3]", "Ki": 9}, {"smiles": "O=C(NCc1ccc(Cc2c[nH]cn2)cc1)Nc1ccccc1Cl", "note": "[Compound 4]", "Ki": 32}, {"smiles": "O=C(NCc1ccc(Cc2c[nH]cn2)cc1)Nc1cccc(C(F)(F)F)c1", "note": "[Compound 6]", "Ki": 16}, {"smiles": "N#Cc1cccc(NC(=O)NCc2ccc(Cc3c[nH]cn3)cc2)c1", "note": "[Compound 7]", "Ki": 5}, {"smiles": "O=C(NCc1ccc(Cc2c[nH]cn2)cc1)Nc1cc(Cl)cc(Cl)c1", "note": "[Compound 8]", "Ki": 4}, {"smiles": "O=C(NCc1ccc(Cc2c[nH]cn2)cc1)Nc1cccc(Cl)c1", "note": "[Compound 9]", "Ki": 6}, {"smiles": "O=C(NCc1ccc(Cc2c[nH]cn2)cc1)Nc1ccc(Cl)c(Cl)c1", "note": "[Compound 10]", "Ki": 7}, {"smiles": "O=C(Nc1ccc(Cl)c(Cl)c1)OCc1ccc(Cc2c[nH]cn2)cc1", "note": "[Compound 13]", "Ki": 18}, {"smiles": "O=C(Nc1cc(C(F)(F)F)cc(C(F)(F)F)c1)OCc1ccc(Cc2c[nH]cn2)cc1", "note": "[Compound 18]", "Ki": 23}, {"smiles": "O=C(Nc1cc(Cl)cc(Cl)c1)OCc1ccc(Cc2c[nH]cn2)cc1", "note": "[Compound 20]", "Ki": 5}]}, {"system": "short-term memory and reversal learning", "test": "not given", "conditions": "rat; Clapham et al., Brit. J. Pharm. Suppl. 1993; cited from earlier work", "values": [{"smiles": "S=C(NC1CCCCC1)N1CCC(c2cnc[nH]2)CC1", "note": "[thioperamide]", "short-term memory and reversal learning": "can improve short-term memory and reversal learning in the rat"}]}, {"system": "electrically induced convulsions", "test": "not given", "conditions": "mice; Yokoyama et al., Eur. J. Pharmacol. 1993; cited from earlier work", "values": [{"smiles": "S=C(NC1CCCCC1)N1CCC(c2cnc[nH]2)CC1", "note": "[thioperamide]", "duration of each phase of convulsion": "decreased the duration of each phase of convulsion", "electroconvulsive threshold": "raised the electroconvulsive threshold"}]}]}
